{"source": "ChEMBL document CHEMBL6078730", "about": "“Exploring the antiproliferative and proapoptotic activities of new pyridopyrimidine derivatives and their analogs” (Bioorg Med Chem, 2025)", "key": {"T47D [1]": {"system": "T47D", "experiment": "Antiproliferative activity against human T47D cells assessed as inhibition of cell proliferation incubated for 24 hrs by MTT assay", "format": "functional, cell-based"}, "T47D [2]": {"system": "T47D", "experiment": "Antiproliferative activity against human T47D cells assessed as reduction in cell growth inhibition at 10 uM incubated for 24 hrs by MTT assay relative to control", "format": "functional", "conditions": "read-out: GI"}, "MDA-MB-435": {"system": "MDA-MB-435", "experiment": "Antiproliferative activity against human MDA-MB-435 cells assessed as reduction in cell growth inhibition at 10 uM incubated for 24 hrs by MTT assay relative to control", "format": "functional", "conditions": "read-out: GI"}, "T47D [3]": {"system": "T47D", "experiment": "Induction of apoptosis in human T47D cells assessed as increase in p53 expression at IC50 concentration incubated for 48 hrs by Western blotting analysis", "format": "functional, cell-based"}, "T47D [4]": {"system": "T47D", "experiment": "Induction of apoptosis in human T47D cells assessed as increase in late apoptotic cells at IC50 concentration incubated for 48 hrs by AnnexinV-FITC/PI staining based flow cytometry (reference value: 0.13%)", "format": "functional"}, "T47D [5]": {"system": "T47D", "experiment": "Induction of apoptosis in human T47D cells assessed as increase in necrotic cells at IC50 concentration incubated for 48 hrs by AnnexinV-FITC/PI staining based flow cytometry (reference value: 1.42%)", "format": "functional"}, "T47D [6]": {"system": "T47D", "experiment": "Induction of cell cycle arrest in human T47D cells assessed as increase in accumulation of cells at G2-M phase at IC50 concentration incubated for 48 hrs by […]PI staining based flow cytometry analysis (reference value: 17.28%)", "format": "functional"}, "[7]": {"target": "Phosphatidylinositol 4,5-bisphosphate 3-kinase catalytic subunit beta isoform (Homo sapiens, UniProt P42338)", "sequence (P42338 whole entry, canonical isoform)": "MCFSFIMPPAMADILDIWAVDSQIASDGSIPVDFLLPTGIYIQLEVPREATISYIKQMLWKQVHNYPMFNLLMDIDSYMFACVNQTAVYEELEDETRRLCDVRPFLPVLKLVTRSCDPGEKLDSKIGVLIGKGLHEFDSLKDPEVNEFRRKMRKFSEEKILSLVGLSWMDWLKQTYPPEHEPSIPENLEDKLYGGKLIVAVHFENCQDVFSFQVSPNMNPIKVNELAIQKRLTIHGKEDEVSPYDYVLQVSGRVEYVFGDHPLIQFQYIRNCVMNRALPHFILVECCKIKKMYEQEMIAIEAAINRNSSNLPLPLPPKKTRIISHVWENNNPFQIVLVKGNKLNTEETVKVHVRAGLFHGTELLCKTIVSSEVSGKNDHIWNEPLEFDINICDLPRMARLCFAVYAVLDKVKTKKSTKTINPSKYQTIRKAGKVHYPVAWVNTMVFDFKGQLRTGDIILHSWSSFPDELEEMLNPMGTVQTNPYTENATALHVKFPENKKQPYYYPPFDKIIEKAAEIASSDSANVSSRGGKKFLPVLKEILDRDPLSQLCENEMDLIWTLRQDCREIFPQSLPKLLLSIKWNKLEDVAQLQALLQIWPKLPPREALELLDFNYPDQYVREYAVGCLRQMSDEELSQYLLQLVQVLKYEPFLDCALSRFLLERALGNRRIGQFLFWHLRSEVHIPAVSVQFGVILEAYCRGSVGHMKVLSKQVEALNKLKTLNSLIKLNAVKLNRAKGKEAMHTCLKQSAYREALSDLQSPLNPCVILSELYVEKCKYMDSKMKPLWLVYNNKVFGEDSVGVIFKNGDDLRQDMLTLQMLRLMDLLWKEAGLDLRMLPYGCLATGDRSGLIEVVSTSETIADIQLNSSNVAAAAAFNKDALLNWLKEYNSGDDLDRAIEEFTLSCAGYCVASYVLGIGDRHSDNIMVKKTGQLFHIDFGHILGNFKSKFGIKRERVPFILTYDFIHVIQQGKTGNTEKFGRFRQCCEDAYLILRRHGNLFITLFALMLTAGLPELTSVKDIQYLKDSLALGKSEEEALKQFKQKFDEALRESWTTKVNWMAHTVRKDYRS", "experiment": "Inhibition of PI3K beta (unknown origin) using PIP2 as substrate preincubated for 10 mins followed by substrate addition and measured after 1 hrs by colorimetric analysis"}, "T47D [8]": {"system": "T47D", "experiment": "Induction of apoptosis in human T47D cells assessed as increase in Bax expression at IC50 concentration incubated for 48 hrs by Western blotting analysis", "format": "functional, cell-based"}, "T47D [9]": {"system": "T47D", "experiment": "Induction of apoptosis in human T47D cells assessed as increase in early apoptotic cells at IC50 concentration incubated for 48 hrs by AnnexinV-FITC/PI staining based flow cytometry (reference value: 0.64%)", "format": "functional"}, "T47D [10]": {"system": "T47D", "experiment": "Induction of cell cycle arrest in human T47D cells assessed as decrease in accumulation of cells at G0-G1 phase at IC50 concentration incubated for 48 hrs by […]PI staining based flow cytometry analysis (reference value: 52.84%)", "format": "functional", "parameters": "scale not given: the % may be the effect or the level left"}, "[11]": {"experiment": "Selectivity index, ratio of IC50 for human MCF-10A cells to IC50 for human T47D cells", "format": "toxicity", "conditions": "MCF-10A cells versus T47D cells, read-out: Ratio IC50"}, "[12]": {"experiment": "Downregulation of Bcl-2 expression in human T47D cells assessed as fold change at IC50 concentration incubated for 48 hrs by Western blotting analysis", "format": "functional"}, "T47D [13]": {"system": "T47D", "experiment": "Induction of apoptosis in human T47D cells assessed as fold increase in ratio of apoptotic cells incubated for 48 hrs by AnnexinV-FITC/PI staining based flow cytometry", "format": "functional"}, "T47D [14]": {"system": "T47D", "experiment": "Induction of apoptosis in human T47D cells assessed as increase in Bax/Bcl-2 ratio at IC50 concentration incubated for 48 hrs by Western blotting analysis", "format": "functional, cell-based"}, "[15]": {"target": "Phosphatidylinositol 4,5-bisphosphate 3-kinase catalytic subunit gamma isoform (Homo sapiens, UniProt P48736)", "sequence (P48736 whole entry, canonical isoform)": "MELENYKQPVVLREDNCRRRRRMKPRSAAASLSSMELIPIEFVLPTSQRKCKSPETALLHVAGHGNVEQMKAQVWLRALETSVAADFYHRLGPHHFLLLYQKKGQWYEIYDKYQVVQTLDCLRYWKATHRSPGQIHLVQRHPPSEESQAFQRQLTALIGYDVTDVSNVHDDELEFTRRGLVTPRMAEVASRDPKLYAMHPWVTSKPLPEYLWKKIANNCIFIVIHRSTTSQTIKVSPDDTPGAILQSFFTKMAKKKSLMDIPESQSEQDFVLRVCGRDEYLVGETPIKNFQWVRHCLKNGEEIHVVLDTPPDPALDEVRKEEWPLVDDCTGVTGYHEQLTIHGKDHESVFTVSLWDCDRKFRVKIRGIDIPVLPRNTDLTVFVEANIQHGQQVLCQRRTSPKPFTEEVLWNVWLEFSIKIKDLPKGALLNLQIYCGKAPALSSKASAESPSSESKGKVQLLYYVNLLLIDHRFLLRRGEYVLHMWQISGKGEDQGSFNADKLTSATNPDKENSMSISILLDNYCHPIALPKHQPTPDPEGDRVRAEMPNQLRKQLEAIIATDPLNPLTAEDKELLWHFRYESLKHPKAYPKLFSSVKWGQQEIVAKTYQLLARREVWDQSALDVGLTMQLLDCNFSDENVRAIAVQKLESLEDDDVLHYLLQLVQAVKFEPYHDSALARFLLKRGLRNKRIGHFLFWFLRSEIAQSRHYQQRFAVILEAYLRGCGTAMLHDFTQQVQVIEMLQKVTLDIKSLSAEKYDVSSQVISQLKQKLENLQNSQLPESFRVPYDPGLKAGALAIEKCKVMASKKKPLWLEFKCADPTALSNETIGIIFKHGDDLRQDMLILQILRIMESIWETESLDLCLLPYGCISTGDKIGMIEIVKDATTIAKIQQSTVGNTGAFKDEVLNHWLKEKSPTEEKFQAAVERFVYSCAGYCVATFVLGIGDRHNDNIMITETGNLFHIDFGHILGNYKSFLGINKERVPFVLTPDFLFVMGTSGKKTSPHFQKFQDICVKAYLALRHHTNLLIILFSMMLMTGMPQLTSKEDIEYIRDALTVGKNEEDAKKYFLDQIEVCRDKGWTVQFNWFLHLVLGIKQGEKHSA", "experiment": "Inhibition of PI3K gamma (unknown origin) using PIP2 as substrate preincubated for 10 mins followed by substrate addition and measured after 1 hrs by colorimetric analysis"}, "[16]": {"experiment": "Cytotoxicity against human MCF-10A cells assessed as reduction in cell viability at 10 uM incubated for 24 hrs by MTT assay", "format": "toxicity, cell-based"}, "T47D [17]": {"system": "T47D", "experiment": "Induction of apoptosis in human T47D cells assessed as decrease in viable cells at IC50 concentration incubated for 48 hrs by AnnexinV-FITC/PI staining based flow cytometry relative to control", "format": "functional, cell-based"}, "[18]": {"experiment": "Upregulation of Bax expression in human T47D cells assessed as fold change at IC50 concentration incubated for 48 hrs by Western blotting analysis", "format": "functional"}, "[19]": {"target": "T1, Phosphatidylinositol 4,5-bisphosphate 3-kinase catalytic subunit delta isoform (Homo sapiens, UniProt O00329)", "T1 sequence (O00329 whole entry)": "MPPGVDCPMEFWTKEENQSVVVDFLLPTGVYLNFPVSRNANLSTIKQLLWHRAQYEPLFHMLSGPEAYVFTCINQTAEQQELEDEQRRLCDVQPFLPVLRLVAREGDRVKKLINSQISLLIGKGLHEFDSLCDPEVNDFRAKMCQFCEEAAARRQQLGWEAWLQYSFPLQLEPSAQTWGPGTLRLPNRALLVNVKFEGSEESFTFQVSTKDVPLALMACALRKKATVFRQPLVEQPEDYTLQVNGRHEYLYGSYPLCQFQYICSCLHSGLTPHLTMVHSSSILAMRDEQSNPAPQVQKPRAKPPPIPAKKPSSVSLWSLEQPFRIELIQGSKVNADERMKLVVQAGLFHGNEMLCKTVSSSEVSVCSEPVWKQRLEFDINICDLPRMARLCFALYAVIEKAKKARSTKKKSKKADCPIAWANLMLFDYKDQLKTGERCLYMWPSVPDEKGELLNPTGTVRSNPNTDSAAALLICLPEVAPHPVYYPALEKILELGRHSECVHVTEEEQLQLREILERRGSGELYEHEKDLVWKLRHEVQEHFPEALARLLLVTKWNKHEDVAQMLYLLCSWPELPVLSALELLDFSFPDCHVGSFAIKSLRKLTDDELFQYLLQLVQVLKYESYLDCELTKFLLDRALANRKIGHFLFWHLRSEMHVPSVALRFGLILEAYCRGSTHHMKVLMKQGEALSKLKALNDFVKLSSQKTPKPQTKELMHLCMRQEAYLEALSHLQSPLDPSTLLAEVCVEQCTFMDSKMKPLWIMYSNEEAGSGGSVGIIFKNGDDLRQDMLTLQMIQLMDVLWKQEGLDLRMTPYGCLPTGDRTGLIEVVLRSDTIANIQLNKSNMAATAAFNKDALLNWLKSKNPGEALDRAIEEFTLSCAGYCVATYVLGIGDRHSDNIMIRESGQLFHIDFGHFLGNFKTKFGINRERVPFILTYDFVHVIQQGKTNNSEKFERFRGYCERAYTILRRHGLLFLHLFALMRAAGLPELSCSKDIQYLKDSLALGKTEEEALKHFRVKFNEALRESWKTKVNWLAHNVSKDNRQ", "experiment": "Inhibition of PI3K delta (unknown origin) using PIP2 as substrate preincubated for 10 mins followed by substrate addition and measured after 1 hrs by colorimetric analysis"}, "T47D [20]": {"system": "T47D", "experiment": "Induction of cell cycle arrest in human T47D cells assessed as decrease in accumulation of cells at S phase at IC50 concentration incubated for 48 hrs by […]PI staining based flow cytometry analysis (reference value: 29.88%)", "format": "functional", "parameters": "scale not given: the % may be the effect or the level left"}, "[21]": {"target": "Phosphatidylinositol 4,5-bisphosphate 3-kinase catalytic subunit alpha isoform (Homo sapiens, UniProt P42336)", "sequence (P42336 whole entry, canonical isoform)": "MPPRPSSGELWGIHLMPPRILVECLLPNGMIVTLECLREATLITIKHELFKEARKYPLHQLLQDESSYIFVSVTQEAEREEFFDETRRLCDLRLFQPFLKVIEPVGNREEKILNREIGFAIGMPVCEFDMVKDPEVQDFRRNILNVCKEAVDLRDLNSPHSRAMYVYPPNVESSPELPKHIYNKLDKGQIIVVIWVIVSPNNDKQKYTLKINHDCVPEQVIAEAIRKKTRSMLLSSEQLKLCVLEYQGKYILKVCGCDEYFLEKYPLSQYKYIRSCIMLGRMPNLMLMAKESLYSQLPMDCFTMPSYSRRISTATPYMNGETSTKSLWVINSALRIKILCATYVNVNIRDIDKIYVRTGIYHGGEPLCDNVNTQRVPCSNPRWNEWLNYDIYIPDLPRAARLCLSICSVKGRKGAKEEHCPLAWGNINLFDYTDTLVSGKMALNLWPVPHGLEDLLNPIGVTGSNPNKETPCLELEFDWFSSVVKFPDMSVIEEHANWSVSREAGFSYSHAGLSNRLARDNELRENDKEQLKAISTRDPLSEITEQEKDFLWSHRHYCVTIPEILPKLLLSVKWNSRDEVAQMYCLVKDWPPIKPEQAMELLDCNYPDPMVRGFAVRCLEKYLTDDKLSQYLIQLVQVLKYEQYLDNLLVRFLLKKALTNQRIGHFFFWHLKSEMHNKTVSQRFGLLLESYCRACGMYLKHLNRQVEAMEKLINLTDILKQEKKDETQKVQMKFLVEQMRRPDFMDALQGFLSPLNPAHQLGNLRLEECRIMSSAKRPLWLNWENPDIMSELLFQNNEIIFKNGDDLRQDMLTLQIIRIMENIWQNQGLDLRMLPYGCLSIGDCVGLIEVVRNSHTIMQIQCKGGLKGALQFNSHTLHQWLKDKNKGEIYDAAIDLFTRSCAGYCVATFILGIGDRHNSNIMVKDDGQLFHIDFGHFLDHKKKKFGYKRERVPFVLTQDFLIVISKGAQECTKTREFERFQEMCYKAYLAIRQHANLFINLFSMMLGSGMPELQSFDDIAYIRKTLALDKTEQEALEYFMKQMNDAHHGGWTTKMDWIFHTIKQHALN", "experiment": "Inhibition of PI3K alpha (unknown origin) using PIP2 as substrate preincubated for 10 mins followed by substrate addition and measured after 1 hrs by colorimetric analysis"}, "T47D [22]": {"system": "T47D", "experiment": "Induction of apoptosis in human T47D cells assessed as inhibition in Bcl2 expression at IC50 concentration incubated for 48 hrs by Western blotting analysis", "format": "functional, cell-based"}, "NCI-H23": {"system": "NCI-H23", "experiment": "Antiproliferative activity against human NCI-H23 cells assessed as reduction in cell growth inhibition at 10 uM incubated for 24 hrs by MTT assay relative to control", "format": "functional", "conditions": "read-out: GI"}}, "note": "Calls of active or inactive are those of the source. No cut-off for these calls is given here.", "data": [{"smiles": "COc1ccc(-c2ccc3c(=O)[nH]c(=S)[nH]c3n2)cc1", "values": [{"measurement": "IC50", "setting": "T47D [1]", "result": 52.7, "unit": "µg/mL"}, {"measurement": "inhibition of growth at 10 µM", "setting": "T47D [2]", "result": 81, "unit": "%"}]}, {"smiles": "Cc1ccc(-c2ccc3c(=O)[nH]c(=S)[nH]c3n2)cc1", "values": [{"measurement": "IC50", "setting": "T47D [1]", "result": 18.4, "unit": "µg/mL"}, {"measurement": "inhibition of growth at 10 µM", "setting": "T47D [2]", "result": 81, "unit": "%"}]}, {"smiles": "O=C(C1=CNC(=S)NC1c1ccc(F)cc1)c1ccccc1", "note": "(stereo not given)", "values": [{"measurement": "inhibition of growth at 10 µM", "setting": "MDA-MB-435", "result": 63, "unit": "%"}]}, {"smiles": "O=c1[nH]c(=S)[nH]c2nc(-c3ccc(Cl)cc3)ccc12", "values": [{"measurement": "Activity", "setting": "T47D [3]", "result": "Active"}, {"measurement": "Activity", "setting": "T47D [4]", "result": 11.51, "unit": "%"}, {"measurement": "IC50", "setting": "T47D [1]", "result": 1.46, "unit": "µg/mL"}, {"measurement": "Activity", "setting": "T47D [5]", "result": 6.88, "unit": "%"}, {"measurement": "Activity", "setting": "T47D [6]", "result": 28.02, "unit": "%"}, {"measurement": "IC50", "setting": "[7]", "result": 7.69, "unit": "µM"}, {"measurement": "Activity", "setting": "T47D [8]", "result": "Active"}, {"measurement": "Activity", "setting": "T47D [9]", "result": 18.83, "unit": "%"}, {"measurement": "Activity", "setting": "T47D [10]", "result": 45.11, "unit": "%"}, {"measurement": "selectivity ratio", "setting": "[11]", "result": 289}, {"measurement": "fold change (FC)", "setting": "[12]", "result": 0.69}, {"measurement": "fold change (FC)", "setting": "T47D [13]", "result": "~37"}, {"measurement": "Activity", "setting": "T47D [14]", "result": "Active"}, {"measurement": "IC50", "setting": "[15]", "result": 2.12, "unit": "µM"}, {"measurement": "IC50 at 24 h", "setting": "[16]", "result": 422, "unit": "µg/mL"}, {"measurement": "Activity", "setting": "T47D [17]", "result": "Active"}, {"measurement": "fold change (FC)", "setting": "[18]", "result": 2.38}, {"measurement": "IC50", "setting": "[19]", "result": 40.9, "unit": "µM"}, {"measurement": "Activity", "setting": "T47D [20]", "result": 26.87, "unit": "%"}, {"measurement": "inhibition of growth at 10 µM", "setting": "T47D [2]", "result": 81, "unit": "%"}, {"measurement": "IC50", "setting": "[21]", "result": 0.632, "unit": "µM"}, {"measurement": "Activity", "setting": "T47D [22]", "result": "Active"}]}, {"smiles": "O=C(C1=CNC(=S)NC1c1ccc(F)cc1)c1ccc(F)cc1", "note": "(stereo not given)", "values": [{"measurement": "inhibition of growth at 10 µM", "setting": "MDA-MB-435", "result": 63, "unit": "%"}]}, {"smiles": "O=c1[nH]c(=S)[nH]c2nc(-c3ccc(F)cc3)ccc12", "values": [{"measurement": "IC50", "setting": "T47D [1]", "result": 6.09, "unit": "µg/mL"}, {"measurement": "inhibition of growth at 10 µM", "setting": "T47D [2]", "result": 81, "unit": "%"}]}, {"smiles": "CS(=O)(=O)N1CCN(Cc2cc3nc(-c4cccc5[nH]ncc45)nc(N4CCOCC4)c3s2)CC1", "note": "[PICTILISIB]", "values": [{"measurement": "IC50", "setting": "T47D [1]", "result": 2.56, "unit": "µg/mL"}]}, {"smiles": "Cc1ccc(C(=O)C2=CNC(=S)NC2c2ccc(O)cc2)cc1", "note": "(stereo not given)", "values": [{"measurement": "inhibition of growth at 10 µM", "setting": "MDA-MB-435", "result": 184, "unit": "%"}]}, {"smiles": "O=C(C1=CNC(=S)NC1c1ccc(F)cc1)c1ccc(Cl)cc1", "note": "(stereo not given)", "values": [{"measurement": "inhibition of growth at 10 µM", "setting": "MDA-MB-435", "result": 63, "unit": "%"}]}, {"smiles": "O=c1[nH]c(=S)[nH]c2nc(-c3ccccc3)ccc12", "values": [{"measurement": "IC50", "setting": "T47D [1]", "result": 16.1, "unit": "µg/mL"}, {"measurement": "inhibition of growth at 10 µM", "setting": "T47D [2]", "result": 50, "unit": "%"}]}, {"smiles": "O=c1[nH]c(=S)[nH]c2nc(-c3ccc([N+](=O)[O-])cc3)ccc12", "values": [{"measurement": "IC50", "setting": "T47D [1]", "result": 22.1, "unit": "µg/mL"}, {"measurement": "inhibition of growth at 10 µM", "setting": "T47D [2]", "result": 81, "unit": "%"}]}, {"smiles": "O=c1[nH]c(=S)[nH]c2nc(-c3ccc(Br)cc3)ccc12", "values": [{"measurement": "IC50", "setting": "T47D [1]", "result": 9.62, "unit": "µg/mL"}, {"measurement": "inhibition of growth at 10 µM", "setting": "T47D [2]", "result": 81, "unit": "%"}]}, {"smiles": "Cc1ccc(C(=O)C2=CNC(=O)NC2c2ccc(O)cc2)cc1", "note": "(stereo not given)", "values": [{"measurement": "inhibition of growth at 10 µM", "setting": "NCI-H23", "result": 114, "unit": "%"}]}]}
